Assay results as given in patent US20050222383A1, “Prostasin substrates and inhibitors” (IRM LLC, priority 2004, published 2005).
Blank lines part the entries; values can stand above or below the molecule they belong to.

Key:
prostasin [1] = biological target: T1, prostasin (Homo sapiens, UniProt Q16651); assay: Cation/anion inhibition of prostasin activity against Ac-KHYR-acc; type: biochemical; settings: read-out: Inhibition constants
T1 construct: eliminate the N-terminal signal peptide domain and light chain and the C-terminal GPI signal domain; honeybee melittin signal peptide (21 aa) (N); made in house; host or cells: Sf9 insect cells, baculovirus (Bac-to-Bac, pFastBac1)
T1 sequence (Q16651 45-322 limits assumed): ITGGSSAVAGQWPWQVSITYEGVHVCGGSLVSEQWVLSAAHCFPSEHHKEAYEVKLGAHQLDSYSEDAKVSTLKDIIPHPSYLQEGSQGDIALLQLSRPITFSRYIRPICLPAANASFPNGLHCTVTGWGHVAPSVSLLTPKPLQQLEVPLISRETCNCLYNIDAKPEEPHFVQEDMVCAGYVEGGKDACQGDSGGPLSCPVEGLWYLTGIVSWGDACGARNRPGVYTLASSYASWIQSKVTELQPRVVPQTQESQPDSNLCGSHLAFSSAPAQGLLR

prostasin [2] = biological target: T1, prostasin; assay: Prostasin assayed in tetrapeptide substrate libraries with a set concentration of sodium, calcium or zinc; type: biochemical; settings: for effect on substrate specificity profile / decrease in activity across the libraries: tetrapeptide substrate libraries; for decrease in activity across the libraries: set concentration of ion
Method: P1-P4-Fluorogenic substrate libraries were synthesized as previously described (Wang et al, J. Biol. Chem., 278: 15800-15808, 2003). Prostasin was diluted in assay buffer and added to the library plates. In the two-position fixed tetrapeptide substrate library, the final substrate concentration was approximately 0.25 μM/substrate/well with a total of 361 substrates per well. Each variable position had one of 19 amino acids with cysteine excluded and methionine replaced by its isostere norleucine.
Further, prostasin was assayed in the tetrapeptide substrate libraries with a set concentration of sodium, calcium or zinc to determine the effect of each on overall substrate specificity.

prostasin [3] = biological target: T1, prostasin; assay: Assays with transition metals, prostasin activity with Ac-KHYR-acmc; type: biochemical; settings: for enhancement effect: increase of enzymatic activity: Ac-KHYR-acmc substrate, sub inhibitory metal ion concentrations; for increases in IC50 values: assays with KHYR substrate
Method: (§1) Proteolytic activity of the purified prostasin was monitored by measuring the accumulation of the fluorophore 7-amino-3-carbamoylmethyl-4-methylcoumarin (acmc) or 7-amino-4-carbamoylmethylcoumarin (acc) produced by the cleavage of the tetrapeptide substrate Ac-KHYR-acmc, Ac-KHYR-acc or Ac-PRLR-acmc in assay buffer (50 mM Tris-Cl pH 9.0, 0.25% CHAPS; 10 mM CHES pH 9.0 (37° C.), 0.25% CHAPS; or 10 mM Hepes pH 7.4 (37° C.), 0.25% CHAPS) at 37° C. Assays were run in 96 or 384-well black microtiter plates. Data was collected with a Gemini XS plate reader (Molecular Devices) at λex=380 nm and λem=450 nm.

prostasin [4] = biological target: T1, prostasin; assay: Michaelis-Menten kinetics of KHYR-acmc and PRLR-acmc in the presence of zinc; type: biochemical
Method: as §1
The effect of zinc on the Michelis-Menten kinetics of KHYR-acmc and PRLR-acmc was measured in the presence of 20 μM zinc(II). […] The kcat of KHYR-acmc was 2.7 fold higher and the kcat of PRLR-acmc was 1.6 fold lower. These changes translated into a 30-fold increase in specificity for KHYR over PRLR in the presence of zinc.

[5] = tested on: Xenopus kidney epithelial cell line; settings: exposure of the apical membrane; cited from earlier work
prostasin [6] = biological target: T1, prostasin; assay: Inhibition assays of macromolecular inhibitors, prostasin activity against Ac-KHYR-acmc; type: biochemical; settings: Ac-KHYR-acmc substrate, Tris-CHAPS buffer; read-out: classical inhibition constants (Ki)
Method: as §1
The inhibition constants of macromolecular inhibitors were calculated for prostasin. Prostasin activity against Ac-KHYR-acmc was measured in Tris-CHAPS buffer, as in “Enzyme Assays,” in the presence of 10 μM-170 pM aprotinin and soybean trypsin inhibitor (SBTI), 1 μM-17 pM α1-antitrypsin, and 200 nM-3.3 pM α1-antichymotrypsin. Rates were plotted in Prism (GraphPad) and classical inhibition constants (Ki) were calculated using the results of non-linear regression.

[7] = Ac-KHYR-acc substrate, CHES-CHAPS buffer, 37° C.
[8] = in the presence of 20 μM zinc(II)

Molecule: [Ca+2].[Cl-].[Cl-] [CaCl2]
- Ki (prostasin [1]; [7]): 260 µM

Molecule: [Cl-].[Cl-].[Co+2] [CoCl2]
- Ki (prostasin [1]): 5 µM

Molecule: [Cl-].[K+] [KCl]
- Ki (prostasin [1]; [7]): 5800 µM

Molecule: [Cl-].[Li+] [LiCl]
- Ki (prostasin [1]; [7]): 2400 µM

- Ki (prostasin [1]; [7]): 390 µM
Molecule: [Cl-].[Cl-].[Mg+2] [MgCl2]

Molecule: [Cl-].[Na+] [NaCl]
- Ki (prostasin [1]): 5300 µM

Molecule: [F-].[Na+] [NaF]
- Ki (prostasin [1]; [7]): 4200 µM

Molecule: [I-].[Na+] [NaI]
- Ki (prostasin [1]; [7]): 4500 µM

Molecule: [Ca+2] [calcium]
- effect on substrate specificity profile (prostasin [2]): Neither sodium nor calcium changed the substrate profile
- decrease in activity across the libraries (prostasin [2]): 25-35%

Molecule: [Co+2] [cobalt]
- enhancement effect: increase of enzymatic activity (prostasin [3]): No enhancement in activity
- increases in IC50 values (prostasin [3]): 10 fold

Molecule: [Cu+2] [copper]
- increases in IC50 values (prostasin [3]): 25 fold

Molecule: [Ni+2] [nickel]
- enhancement effect: increase of enzymatic activity (prostasin [3]): 1.4 fold
- increases in IC50 values (prostasin [3]): 100 fold

Molecule: [Na+] [sodium]
- effect on substrate specificity profile (prostasin [2]): Neither sodium nor calcium changed the substrate profile
- decrease in activity across the libraries (prostasin [2]): 50-60%

Molecule: [Zn+2] [zinc]
- relative increase in the activity of substrates with arginine in P1 and histidine in P3 (prostasin [2]; P1-P3 library): three fold relative increase
- effect on substrate specificity profile (prostasin [2]): did not alter the specificity profiles
- increases in IC50 values (prostasin [3]): 200 fold

- decrease in the Km (prostasin [4]; [8]): 4 fold
- kcat higher (prostasin [4]; [8]): 2.7 fold
- increase in specificity for KHYR over PRLR (prostasin [4]; in the presence of zinc): 30 fold
Molecule: Ac-KHYR-acmc

- increase in the Km (prostasin [4]; [8]): 2 fold
- kcat lower (prostasin [4]; [8]): 1.6 fold
Molecule: Ac-PRLR-acmc

- Ki (prostasin [6]): 0.0025 µM
Molecule: aprotinin
- transepithelial sodium transport [5]: reduces transepithelial sodium transport

- Ki (prostasin [6]): > 0.2 µM
B1: α1-antichymotrypsin (protein, UniProt P01011 24-423, looked up)
Alpha-1-antichymotrypsin: HPNSPLDEENLTQENQDRGTHVDLGLASANVDFAFSLYKQLVLKAPDKNVIFSPLSISTALAFLSLGAHNTTLTEILKGLKFNLTETSEAEIHQSFQHLLRTLNQSSDELQLSMGNAMFVKEQLSLLDRFTEDAKRLYGSEAFATDFQDSAAAKKLINDYVKNGTRGKITDLIKDLDSQTMMVLVNYIFFKAKWEMPFDPQDTHQSRFYLSKKKWVMVPMMSLHHLTIPYFRDEELSCTVVELKYTGNASALFILPDQDKMEEVEAMLLPETLKRWRDSLEFREIGELYLPKFSISRDYNLNDILLQLGIEEAFTSKADLSGITGARNLAVSQVVHKAVLDVFEEGTEASAATAVKITLLSALVETRTIVRFNRPFLMIIVPTDTQNIFFMSKVTNPKQA
